Key:
expert panel members = assay: Sucrose Equivalent Value (SEV): expert panel matches the test solution to stock sucrose solutions; format: in vivo; settings: for effect on sweetness of the sucrose solution (dose response curve): 0 to 1000 ppm in pH 3.2 buffered 5% sucrose; for effect on sweetness (SEV) of sucrose solutions: 500 ppm in pH 3.2 buffered 0%, 3%, 5%, 7% and 9% sucrose; for SEV (%): 500 ppm of a single potentiator in pH 3.2 buffered 5% sucrose
Experimental: One method of measuring the perceived sweetness of a solution is to match it with a stock sucrose solution of known concentration. In the present experiments, the compound of interest is added at a predetermined concentration to a pH 3.2 buffered solution containing 5% sucrose. A number of expert panel members then taste the solution and compare it to a battery of stock sucrose solutions ranging from 3% to 15% at increments of 1%. Each panel member decides which sucrose solution is equisweet with the solution containing the compound of interest. The mean value is then reported as the SEV. Results are reported to 1 decimal place.
In accordance with this methodology, 3-HB was added to a pH 3.2 buffered solution containing 5% sucrose to produce solutions containing from 0 to 1000 ppm 3-HB in 100 ppm increments. […] From FIG. 1 it is apparent that as the dosage of 3-HB increases so does the sweetness of the resultant solution. However the effect is non-linear with each incremental addition having a diminishing effect. The maximum sweetness attainable would appear to be about 7.9% SEV (based on a 5% sucrose solution).
The same methodology as described in Example 7 was repeated with 2,4-DHB in place of 3-HB, to produce the dose response curve for 2,4-DHB (FIG. 2). […] The maximum attainable sweetness would appear to be about 6.7% SEV (based on a 5% sucrose solution).
500 ppm of a sweetener potentiator was added to a pH 3.2 buffered solution containing 5% sucrose and the SEV of the resultant solution determined. […]
pH 3.2 buffered solutions were prepared containing 0%, 3%, 5%, 7% and 9% sucrose. 500 ppm of 2,4-DHB acid, 500 ppm of the sodium salt of 2,4-DHB and 500 ppm of the potassium salt of 2,4-DHB were added individually to each of the sucrose solutions. The SEV for each of the solutions was then determined.
500 ppm of 3-aminobenzoic acid and 500 ppm of 4-aminobenzoic acid were individually added to separate pH 3.2 buffered solutions containing 5% sucrose and the SEVs of the resultant solutions were determined. The SEV of 3-aminobenzoic acid was about 7%, i.e., increased the sweetness intensity of 5% sucrose to about 7%. The SEV of 4-aminobenzoic acid was about 5.5-6%, i.e., increased the sweetness intensity of 5% sucrose to about 5.5-6%.

[1] = 0.2% added to a 5% sucrose solution; Canadian Patent No. 1208966; cited from earlier work

Structure (SMILES)	effect on sweetness of the sucrose solution (dose response curve) (expert panel members)	effect on sweetness (SEV) of sucrose solutions (expert panel members)	SEV (%) (expert panel members)	further results
O=C(O)c1ccc(O)cc1O [2,4-DHB, 2,4-dihydroxybenzoic acid]	enhances the sweetness of the sucrose solution	enhances the sweetness of the sucrose solution in every case		effect on sweetness of sucrose solution [1]: increase in sweetness
O=C([O-])c1ccc(O)cc1O.[Na+] [sodium salt of 2,4-DHB]		enhances the sweetness of the sucrose solution in every case		
O=C(O)c1cc(O)c(O)c(O)c1 [3,4,5-THB, 3,4,5-tryhydroxybenzoic acid]			5.1	
O=C([O-])c1ccc(O)cc1O.[K+] [potassium salt of 2,4-DHB]		enhances the sweetness of the sucrose solution in every case		
O=C(O)c1cccc(O)c1 [3-HB, 3-hydroxybenzoic acid]	enhances the sweetness of the sucrose solution			
O=C(O)c1ccc(O)c(O)c1 [3,4-DHB, 3,4-dihydroxybenzoic acid]			6.4	
